Assay results as given in patent US20260092057A1, “BCL-XL/BCL-2 DEGRADERS AND USES THEREOF” (Kymera Therapeutics, Inc., priority 2022, published 2026).

Columns and labels:
Assay type in all cases: cell-based
BCL-XL = target: T1, BCL-XL (Homo sapiens, UniProt Q07817); assay: BCL-XL degradation assay in MOLT-4 cells (ELISA, 6 h); conditions: for DC50: read-out: Bcl-xL ELISA in MOLT-4 degradation 6 h: External Abs-DC50
T1 construct: BCL-XL degradation results in MOLT-4 cells for compounds of the invention; endogenous in cells; host or cells: MOLT-4
T1 sequence (Q07817 whole entry): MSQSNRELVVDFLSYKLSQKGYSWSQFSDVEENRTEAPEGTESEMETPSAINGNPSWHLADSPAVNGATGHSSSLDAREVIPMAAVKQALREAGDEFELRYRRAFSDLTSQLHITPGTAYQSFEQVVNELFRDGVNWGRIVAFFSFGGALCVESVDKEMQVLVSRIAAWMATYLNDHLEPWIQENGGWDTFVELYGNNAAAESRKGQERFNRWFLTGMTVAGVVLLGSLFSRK

MOLT-4 cells = assay: CTG (CellTiter-Glo) cell viability assay, MOLT-4; conditions: Homo sapiens, MOLT-4, 72 h, MOLT-4, 3 day; read-out: CTG Cell Viability Assay - MOLT-4 3 day: Average external-IC50
In short: (§1)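 Cells seeded at 10,000 per well, then exposed to a 9-point 1:3 dilution series from 10 µM top concentration (0.2% DMSO) for 3 days at 37 °C, 5% CO2. Viability measured by CellTiter-Glo luminescence; IC50 from a three-parameter logistic fit.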

Caki-2 cells = assay: CTG (CellTiter-Glo) cell viability assay, Caki-2; conditions: Homo sapiens, CAKI-2, 72 h, Caki-2, 3-day; read-out: CTG Chempartner/PHA- Caki-2 3-day: Average external-IC50
In short: as §1

| Compound | Dmax (BCL-XL) [%] | DC50 (BCL-XL) [nM] | IC50 (MOLT-4 cells) [nM] | IC50 (Caki-2 cells) [nM] |
| --- | --- | --- | --- | --- |
| Cc1ncsc1-c1ccc(CNC(=O)[C@@H]2C[C@@H](O)CN2C(=O)[C@@H](NC(=O)C2(F)CC2)C(C)(C)C)c(OCCN2CCN(CC[C@H](CSc3ccccc3)Nc3ccc(S(=O)(=O)NC(=O)c4ccc(N5CCC6(CC5)CC(N5CCC[C@H]5c5ccccc5C5CC5)C6)cc4)cc3S(=O)(=O)C(F)(F)F)CC2)c1 [I-31, (2S,4R)—N-(2-(2-(4-((R)-3-((4-(N-(4-(2-((S)-2-(2-cyclopropylphenyl)pyrolidine-1-yl)-7-azaspiro[3.5]nonan-7-yl)benzoyl)sulfamoyl)-2-((trifluoromethyl)sulfonyl)phenyl)amino)-4-(phenylthio)butyl)piperazin-1-yl)ethoxy)-4 (4-methylthiazol-5-yl)benzyl)-1-((S)-2-(1-fluorocyclopropanecarboxamido)-3,3-dimethylbutanoyl)-4-hydroxypyrrolidine-2-carboxamide] | 50 to 75 | 10 to 100 | 100 to 1000 | < 5000 |
| Cc1ncsc1-c1ccc([C@H](C)NC(=O)[C@@H]2C[C@@H](O)CN2C(=O)[C@@H](NC(=O)CCCCCCN(C)CC[C@H](CSc2ccccc2)Nc2ccc(S(=O)(=O)NC(=O)c3ccc(N4CCN(Cc5ccccc5-c5ccc(Cl)cc5)CC4)cc3)cc2[N+](=O)[O-])C(C)(C)C)cc1 [I-14] | < 50 | 500 to 1000 | > 3000 | > 30000 |
| C#Cc1ccc([C@H](C)NC(=O)[C@@H]2C[C@@H](O)CN2C(=O)[C@@H](NC(=O)CCCCCC(=O)N2CCN(CCCNc3ccc(S(=O)(=O)NC(=O)c4ccc(N5CCN(CC6=C(c7ccc(Cl)cc7)CC(C)(C)CC6)CC5)cc4Oc4cnc5[nH]ccc5c4)cc3S(=O)(=O)C(F)(F)F)CC2)C(C)(C)C)cc1F [I-105] | 50 to 75 | 100 to 500 | 100 to 1000 | > 30000 |
| Cc1ncsc1-c1ccc([C@H](C)NC(=O)[C@@H]2C[C@@H](O)CN2C(=O)[C@@H](NC(=O)C2CCN(c3ccc(NC(=O)c4ccc(-c5ccc(Cl)cc5)c(CN5CCN(c6ccc(C(=O)NS(=O)(=O)c7ccc(N[C@H](CCN(C)C)CSc8ccccc8)c([N+](=O)[O-])c7)cc6)CC5)c4)cc3)CC2)C(C)(C)C)cc1 [I-21] | < 50 | 500 to 1000 | > 3000 | > 30000 |
| Cc1ncsc1-c1ccc([C@H](C)NC(=O)[C@@H]2C[C@@H](O)CN2C(=O)[C@@H](NC(=O)CCCCCC(=O)N2CCN(CCCNc3ccc(S(=O)(=O)NC(=O)c4ccc(N5CCC([C@@H](O)c6ccccc6-c6ccc(Cl)cc6)CC5)cc4Oc4cnc5[nH]ccc5c4)cc3S(=O)(=O)C(F)(F)F)CC2)C(C)(C)C)cc1 (single isomer, unassigned) [I-23] | < 50 | 500 to 1000 | 100 to 1000 | > 30000 |
| Cc1ncsc1-c1ccc([C@H](C)NC(=O)[C@@H]2C[C@@H](O)CN2C(=O)[C@@H](NC(=O)CCCCCC(=O)N2CCN(CC[C@H](CSc3ccccc3)Nc3ccc(S(=O)(=O)NC(=O)c4ccc(N5CCC([C@@H](O)c6ccccc6-c6ccc(Cl)cc6)CC5)cc4)cc3S(=O)(=O)C(F)(F)F)CC2)C(C)(C)C)cc1 [I-28, (2S,4R)-1-((S)-2-(7-(4-((R)-3-((4-(N-(4-(4-((R)-(4′-chloro-[1,1′-biphenyl]-2-yl)(hydroxy)methyl)piperidin-1-yl)benzoyl)sulfamoyl)-2-((trifluoromethyl)sulfonyl)phenyl)amino)-4-(phenylthio)butyl)piperazin-1-yl)-7-oxoheptanamido)-3,3-dimethylbutanoyl)-4-hydroxy-N—((S)-1-(4-(4-methylthiazol-5-yl)phenyl)ethyl)pyrrolidine-2-carboxamide] | > 75 | 10 to 100 | < 100 | 10000 to 30000 |
| Cc1ncsc1-c1ccc([C@H](C)NC(=O)[C@@H]2C[C@@H](O)CN2C(=O)[C@@H](NC(=O)CCCCCC(=O)N2CCN(CCCNc3ccc(S(=O)(=O)NC(=O)c4ccc(N5CCN(CC6=C(c7ccc(Cl)cc7)CC(C)(C)CC6)CC5)cc4Oc4cnc5[nH]ccc5c4)cc3S(=O)(=O)C(F)(F)F)CC2)C(C)(C)C)cc1 [I-22, (2S,4R)-1-((S)-2-(7-(4-(3-((4-(N-(2-((1H-pyrrolo[2,3-b]pyridin-5-yl)oxy)-4-(4-((4′-chloro-5,5-dimethyl-3,4,5,6-tetrahydro-[1,1′-biphenyl]-2-yl)methyl)piperazin-1-yl)benzoyl)sulfamoyl)-2-((trifluoromethyl)sulfonyl)phenyl)amino)propyl)piperazin-1-yl)-7-oxoheptanamido)-3,3-dimethylbutanoyl)-4-hydroxy-N—((S)-1-(4-(4-methylthiazol-5-yl)phenyl)ethyl)pyrrolidine-2-carboxamide] | > 75 | 10 to 100 | 100 to 1000 | 10000 to 30000 |
| Cc1ncsc1-c1ccc([C@H](C)NC(=O)[C@@H]2C[C@@H](O)CN2C(=O)[C@@H](NC(=O)CCCCCN2CCN(CCCNc3ccc(S(=O)(=O)NC(=O)c4ccc(N5CCN(CC6=C(c7ccc(Cl)cc7)CC(C)(C)CC6)CC5)cc4Oc4cnc5[nH]ccc5c4)cc3S(=O)(=O)C(F)(F)F)CC2)C(C)(C)C)cc1 [I-74] | < 50 | 500 to 1000 | 100 to 1000 | > 30000 |
| Cc1ncsc1-c1ccc([C@H](C)NC(=O)[C@@H]2C[C@@H](O)CN2C(=O)[C@@H](NC(=O)CCCCCC(=O)N2CCN(CC[C@H](CSc3ccccc3)Nc3ccc(S(=O)(=O)NC(=O)c4ccc(N5CCOCC5)cc4)cc3S(=O)(=O)C(F)(F)F)CC2)C(C)(C)C)cc1 [I-36] | < 50 | 500 to 1000 | > 3000 | > 30000 |
| Cc1ncsc1-c1ccc([C@H](C)NC(=O)[C@@H]2C[C@@H](O)CN2C(=O)[C@@H](NC(=O)CCCCCCC(=O)N2CCN(CCCNc3ccc(S(=O)(=O)NC(=O)c4ccc(N5CCN(CC6=C(c7ccc(Cl)cc7)CC(C)(C)CC6)CC5)cc4Oc4cnc5[nH]ccc5c4)cc3S(=O)(=O)C(F)(F)F)CC2)C(C)(C)C)cc1 [I-81] | > 75 | 10 to 100 | < 100 | > 30000 |
| Cc1ncsc1-c1ccc([C@H](C)NC(=O)[C@@H]2C[C@@H](O)CN2C(=O)[C@@H](NC(=O)CCCCCCCC(=O)N2CCN(Cc3ccc(-c4ccc(Cl)cc4)c(CN4CCN(c5ccc(C(=O)NS(=O)(=O)c6ccc(N[C@H](CCN(C)C)CSc7ccccc7)c([N+](=O)[O-])c6)cc5)CC4)c3)CC2)C(C)(C)C)cc1 [I-8] | 50 to 75 | 100 to 500 | 100 to 1000 | > 30000 |
| Cc1ncsc1-c1ccc([C@H](C)NC(=O)[C@@H]2C[C@@H](O)CN2C(=O)[C@@H](NC(=O)CCCCCCC(=O)N2CCN(CC[C@H](CSc3ccccc3)Nc3ccc(S(=O)(=O)NC(=O)c4ccc(N5CCC([C@@H](O)c6ccccc6-c6ccc(Cl)cc6)CC5)cc4)cc3S(=O)(=O)C(F)(F)F)CC2)C(C)(C)C)cc1 [I-120] | 50 to 75 | 10 to 100 | < 100 | 10000 to 30000 |
| Cc1ncsc1-c1ccc([C@H](C)NC(=O)[C@@H]2C[C@@H](O)CN2C(=O)[C@@H](NC(=O)CCCCCC(=O)N2CCN(CC[C@H](CSc3ccccc3)Nc3ccc(S(=O)(=O)NC(=O)c4ccc(N5CCCN(C)CC5)cc4)cc3S(=O)(=O)C(F)(F)F)CC2)C(C)(C)C)cc1 [I-41] | < 50 | 500 to 1000 | > 3000 | > 30000 |
| Cc1ncsc1-c1ccc([C@H](C)NC(=O)[C@@H]2C[C@@H](O)CN2C(=O)[C@@H](NC(=O)CCCCC(=O)N2CCN(CC[C@H](CSc3ccccc3)Nc3ccc(S(=O)(=O)NC(=O)c4ccc(N5CCC([C@@H](O)c6ccccc6-c6ccc(Cl)cc6)CC5)cc4)cc3S(=O)(=O)C(F)(F)F)CC2)C(C)(C)C)cc1 [I-109] | > 75 | 10 to 100 | 100 to 1000 | > 30000 |
| Cc1ncsc1-c1ccc([C@H](C)NC(=O)[C@@H]2C[C@@H](O)CN2C(=O)[C@@H](NC(=O)CCCCCCC(=O)N2CCN(Cc3ccc(-c4ccc(Cl)cc4)c(CN4CCN(c5ccc(C(=O)NS(=O)(=O)c6ccc(N[C@H](CCN(C)C)CSc7ccccc7)c([N+](=O)[O-])c6)cc5)CC4)c3)CC2)C(C)(C)C)cc1 [I-5] | > 75 | 10 to 100 | 100 to 1000 | > 30000 |
| Cc1ncsc1-c1ccc([C@H](C)NC(=O)[C@@H]2C[C@@H](O)CN2C(=O)[C@@H](NC(=O)CCCCCC(=O)N2CCN(CC[C@H](CSc3ccccc3)Nc3ccc(S(=O)(=O)NC(=O)c4ccc(N5CCN(Cc6ccccc6-c6ccc(Cl)cc6)CC5)cc4)cc3[N+](=O)[O-])CC2)C(C)(C)C)cc1 [I-35] | > 75 | 10 to 100 | > 3000 | > 30000 |
| Cc1ncsc1-c1ccc([C@H](C)NC(=O)[C@@H]2C[C@@H](O)CN2C(=O)[C@@H](NC(=O)CCCCCN(C)CCCNc2ccc(S(=O)(=O)NC(=O)c3ccc(N4CCC([C@H](O)c5ccccc5-c5ccc(Cl)cc5)CC4)cc3Oc3cnc4[nH]ccc4c3)cc2S(=O)(=O)C(F)(F)F)C(C)(C)C)cc1 [I-67] | 50 to 75 | 500 to 1000 | > 3000 | > 30000 |
| Cc1ncsc1-c1ccc([C@H](C)NC(=O)[C@@H]2C[C@@H](O)CN2C(=O)[C@@H](NC(=O)CCCCCCC(=O)N2CCN(Cc3ccc(-c4ccc(Cl)cc4)c([C@H](O)C4CCN(c5ccc(C(=O)NS(=O)(=O)c6ccc(N[C@H](CCN(C)CCO)CSc7ccccc7)c(S(=O)(=O)C(F)(F)F)c6)cc5)CC4)c3)CC2)C(C)(C)C)cc1 [I-25] | > 75 | 10 to 100 | 100 to 1000 | > 30000 |
